{
  "source": "patent US9072751B2",
  "about": "“Na/K-ATPase ligand” (priority 2006, dated 2015)",
  "key": {"Sprague-Dawley rats": {"system": "Sprague-Dawley rats", "assay": "Blood pressure, left ventricular hemodynamics (Millar catheter) and heart size 4 weeks after MBG infusion", "format": "in vivo", "experimental": "Male, Sprague-Dawley rats were used for all of the studies. All of the animal experimentation described in the article was conducted in accordance with the National Institutes of Health Guide for the Care and use of Laboratory Animals using protocols approved by the Medical University of Ohio Institutional Animal Use and Care Committee.\nBriefly, Sprague-Dawley rats weighing.apprxeq.250 g at the time of surgery were subjected to either sham surgery with no MBG infusion (Sham), sham surgery with placement of a minipump infusing MBG at 10 μg/kg per day (MBG), PNx, and PNx after immunization against MBG (PNx-IM). MBG of extremely high purity (>99%) was isolated from the venom of Bufa marinas by Kennedy et al. In addition to these maneuvers, a group of PNx animals was subjected to adrenalectomy as well (PNx-ADx).\n(determined after extraction on a C-18 column using DELPHIA as described previously), aldosterone (determined with ELISA kit 10004377, Cayman Chemical) and cardiac immunohistochemistry (vida infra) were assessed 4 weeks after surgery.\nIn the current in vivo studies we observed that MBG levels were increased in PNx- and MBG-treated rats compared with sham-operated controls. […] Using the Millar pressure/volume sensor catheter rather than echocardiography in our previous report, we observed that PNx induced decreases in end systolic volume and end diastolic volume, as well as increased ejection fraction compared with sham-operated controls. The end systolic volume and end diastolic volume were greater, and the ejection factor values were lower in PNX-IM as compared with PNx. […] Using pressure volume loops generated during vena cava occlusions, we noted that the end diastolic pressure volume relationship (an inverse measurement of passive compliance) was increased in PNx- and MBG-treated animals compared with controls, whereas […] ha a lower end diastolic pressure volume relationship than PNx."}, "[1]": {"system": "isolated cardiac fibroblasts", "format": "cell-based, rat", "settings": "24 hours", "experimental": "Preparation of adult rat cardiac fibroblasts was performed as described previously by Brilla et al. with modifications.\nWestern blot analysis was performed on protein isolated from tissue homogenates, cell culture whole cell lysates, or nuclear extracts as described previously.\nRepresentative Western blot for procollagen and quantitative densitometric data obtained in response to different doses of (a) MBG (all N=10), (b) MBG 10 nM contrasted with different doses of ouabain (0.1 to 100 nM) and digoxin (10 nM; all N=8). c, ouabain sensitive Rb uptake as a function of MBG and ouabain concentration (N=4 at each concentration for both MBG and ouabain; data expressed as fraction of control). d, relative proline incorporation in the supernatant and matrix, both will and without collagenase digestion (total). Each group (controls and different doses of MBG) contains N=7 replicants. The difference between the total and after collagenase digestion is reported as collagen. The matrix is the sample that was obtained after removing supernatant and scraping the culture dish. e, mRNA for collagen 1 in MBG-treated (10 nM; N=8) or control (N=8) fibroblasts. f, procollagen stability after cycloheximide treatment. Time 0 is 1 hour after incubation with cycloheximide (20 μg/mL). […] Least-square regression line fit to control (CTL) and MBG data. Bars on quantitative graphs represent the mean.+−.SEM. *P<0.05 and **P<0.01 vs control.\nThe PP2, herbimycin AG1478, and N-acetyl cysteine were administered from 2 hours before the addition of MBG and continued throughout the 24 hours of MBG incubation (total of 26 hours). Each bar represents the mean.+−.SEM of n=8 experiments. b, effects of PP2 (1 μmol/L) and N-acetyle cysteine (2.5 mmol/L) on MBG (10 nM)-stimulated proline incorporation into collagen. Again, the PP2 an N-acetyl cysteine were added 2 hours before exposure to MBG. Each bar represents the mean.+−.SEM of N=5 experiments. c, effects of MBG 10 nM on procollagen content in SYF and SYF+ cells. Representative Western blots are shown above quantitative data. SYF blots loaded with 15 μg of protein and SYF+blots loaded with 10 μg of protein. Each bar represents the mean.+−SEM of N-6 determinations In each group. **[…] vs. control.\nThe effect of 24 hours of MBG (1 and 10 nM) on TGF-β, Smad 2/3, Smad 4, and pSmad 2/3 expression determined by Western blot. b and c, effects of 24 hours of MBG (10 nM), TGFβ(5 ng/mL), and the TGF-β receptor antagonist SB431542 ([…] on procollagen-1 expression (Western blot) and radiolabeled proline incorporation, respectively also were carried out. SB431542 was added 2 hours before exposure to either TGFβ or MBG (total of 26-hour exposure). Each bar represents the mean.+−.SEM of 6 to 8 determinations. *P<0.05, **P<0.01 vs. control."}, "[2]": {"settings": "MBG infusion, 4 weeks, mean ± SEM"}},
  "note": "Read-outs that look alike come from different tables or passages of the source.",
  "data": [
    {"smiles": "C[C@]12CC[C@H](O)C[C@@]1(O)CC[C@@H]1[C@@H]2CC[C@]2(C)[C@@H](c3ccc(=O)oc3)C[C@H]3O[C@]132", "note": "[MBG, marinobufagenin]", "values": [
      {"measurement": "Ejection fraction", "setting": "Sprague-Dawley rats; [2]", "value": "68 ± 2", "unit": "%"},
      {"measurement": "End diastolic volume", "setting": "Sprague-Dawley rats; [2]", "value": "162 ± 14", "unit": "µL"},
      {"measurement": "End systolic volume", "setting": "Sprague-Dawley rats; [2]", "value": "60 ± 6", "unit": "µL"},
      {"measurement": "Heart rate (Tall cuff measurements)", "setting": "Sprague-Dawley rats; [2]", "value": "367 ± 9", "unit": "bpm"},
      {"measurement": "Heart weight/body weight ratio", "setting": "Sprague-Dawley rats; [2]", "value": "2.8 ± 0.1", "unit": "g/kg"},
      {"measurement": "Systolic blood pressure (Tall cuff measurements)", "setting": "Sprague-Dawley rats; [2]", "value": "136 ± 4", "unit": "mm Hg"},
      {"measurement": "EDPVRX1000", "setting": "Sprague-Dawley rats; end diastolic pressure volume relationship, MBG infusion, 4 weeks, mean ± SEM", "value": "41 ± 6", "unit": "mm Hg/μL"},
      {"measurement": "τ", "setting": "Sprague-Dawley rats; time constant of isovolumic relaxation, MBG infusion, 4 weeks, mean ± SEM", "value": "11.3 ± 0.3", "unit": "ms"},
      {"measurement": "Ventricular myocyte cross-sectional area", "setting": "Sprague-Dawley rats; trichrome images, MBG infusion vs sham", "value": "marked increases"},
      {"measurement": "Increase of procollagen content (Western blot)", "setting": "[1]; 10^−8 M", "value": "about 2 fold"},
      {"measurement": "Increase of procollagen content (Western blot)", "setting": "[1]; 10^−9 M", "value": "about 2 fold"}
    ]}
  ]
}
